These compounds were tested against T1, hCRTH2 (Homo sapiens, UniProt Q9Y5Y4) (assay: Radioligand binding assay ([3H]PGD2 competition, HEK-hCRTH2 membranes)). Conditions: [3H]PGD2 binding, rated A-E (Table A).
T1 construct: expressed in transfected cells; host or cells: HEK (human embryonic kidney) cells expressing hCRTH2; membrane preparation
T1 sequence (Q9Y5Y4 1-395): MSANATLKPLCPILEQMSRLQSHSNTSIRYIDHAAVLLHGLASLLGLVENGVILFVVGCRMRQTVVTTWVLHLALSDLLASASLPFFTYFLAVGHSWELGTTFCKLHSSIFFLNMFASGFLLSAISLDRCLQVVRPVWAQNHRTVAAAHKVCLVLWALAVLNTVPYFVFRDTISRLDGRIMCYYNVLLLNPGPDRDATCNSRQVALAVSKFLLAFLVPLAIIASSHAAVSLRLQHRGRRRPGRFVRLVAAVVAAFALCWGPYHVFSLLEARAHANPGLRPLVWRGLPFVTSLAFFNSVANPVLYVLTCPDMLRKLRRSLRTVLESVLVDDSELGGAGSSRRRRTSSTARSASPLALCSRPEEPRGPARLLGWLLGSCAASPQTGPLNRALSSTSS
In short: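 Membranes (8-20 μg protein) from HEK-hCRTH2 cells were incubated 60 min at room temperature with 3.0 nM [3H]PGD2 in 50 mM Tris-HCl pH 7.4, 1 mM EDTA, 2 mM MnCl2, 1% DMSO. Non-specific binding defined with 10 μM PGD2. Bound radioactivity counted after filtration.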
Work on `CC(CCCc1nc2cc(C(=O)N(C)Cc3cccc(F)c3)ccc2nc1-c1ccc(F)cc1)C(=O)O` (stereo not drawn) [compound 211, 3-(4-fluorophenyl)-7-[[[(3-fluorophenyl)methyl]methylamino]carbonyl]-alpha-methyl-2-quinoxalinepentanoic acid] yielded a Ki of 2.1 to 20 nM. In the case of `CC(CCCc1nc2cc(C(=O)N(C)Cc3ccccc3)ccc2nc1-c1ccc(F)cc1)C(=O)O` (stereo not drawn) [compound 212, 3-(4-fluorophenyl)-alpha-methyl-7-[[methyl(phenylmethyl)amino]carbonyl]-2-quinoxalinepentanoic acid], the Ki is reported as 2.1 to 20 nM. Compound `CC(CCCc1nc2cc(C(=O)N[C@@H](CCO)c3ccccc3)ccc2nc1-c1ccc(F)cc1)C(=O)O` (stereo partly drawn) [compound 213, 3-(4-fluorophenyl)-7-[[(3-hydroxy-1(S)-phenylpropyl)amino]carbonyl]-alpha-methyl-2-quinoxalinepentanoic acid] has a Ki of 20.1 to 200 nM. For `COc1ccc(-c2nc3ccc(C(=O)N[C@H](C)c4ccc(F)cc4)cc3nc2CCCCC(=O)O)cc1` [compound 214, 7-[[[1(R)-(4-fluorophenyl)ethyl]amino]carbonyl]-3-(4-methoxyphenyl)-2-quinoxalinepentanoic acid], the Ki was 0.1 to 2 nM. `C[C@@H](NC(=O)c1ccc2nc(-c3ccc(C#N)cc3)c(CCCCC(=O)O)nc2c1)c1ccc(F)cc1` [compound 215, 3-(4-cyanophenyl)-7-[[[1(R)-(4-fluorophenyl)ethyl]amino]carbonyl]-2-quinoxalinepentanoic acid] showed a Ki of 2.1 to 20 nM. With `CC(C)Oc1ccc(-c2nc3ccc(C(=O)N4CCC(c5ccccc5)CC4)cc3nc2CCCCC(=O)O)cc1` [compound 216, 3-[4-(1-methyl-ethoxy)phenyl]-7-[(4-phenyl-1-piperidinyl)carbonyl]-2-quinoxalinepentanoic acid] the Ki was 20.1 to 200 nM. For `O=C(O)CCCCc1nc2cc(C(=O)N[C@@H]3CCCc4ccccc43)ccc2nc1-c1ccc(F)cc1` [compound 217, 3-(4-fluorophenyl)-7-[[(1,2,3,4-tetrahydro-1(R)-naphthalenyl)amino]carbonyl]-2-quinoxalinepentanoic acid], the Ki was 0.1 to 2 nM. Compound `O=C(O)CCCCc1nc2cc(C(=O)N[C@H]3CCCc4ccccc43)ccc2nc1-c1ccc(F)cc1` [compound 218, 3-(4-fluorophenyl)-7-[[(1,2,3,4-tetrahydro-1(S)-naphthalenyl)amino]carbonyl]-2-quinoxalinepentanoic acid] has a Ki of 0.1 to 2 nM. Work on `O=C(O)CCCCc1nc2cc(C(=O)N[C@@H]3CCCc4cc(F)ccc43)ccc2nc1-c1ccc(F)cc1` [compound 219, 3-(4-fluorophenyl)-7-[[(6-fluoro-1,2,3,4-tetrahydro-1(R)-naphthalenyl)amino]carbonyl]-2-quinoxalinepentanoic acid] yielded a Ki of 0.1 to 2 nM. Work on `O=C(O)CCCCc1nc2cc(C(=O)N[C@H]3CCCc4cc(F)ccc43)ccc2nc1-c1ccc(F)cc1` [compound 220, 3-(4-fluorophenyl)-7-[[(6-fluoro-1,2,3,4-tetrahydro-1(S)-naphthalenyl)amino]carbonyl]-2-quinoxalinepentanoic acid] yielded a Ki of 0.1 to 2 nM. In the case of `O=C(O)CCCCc1nc2cc(C(=O)N[C@@H]3CCCc4cc(Cl)ccc43)ccc2nc1-c1ccc(F)cc1` [compound 221, 7-[[(6-chloro-1,2,3,4-tetrahydro-1(R)-naphthalenyl)amino]carbonyl]-3-(4-fluorophenyl)-2-quinoxalinepentanoic acid], the Ki is reported as 0.1 to 2 nM. Work on `O=C(O)CCCCc1nc2cc(C(=O)N[C@H]3CCCc4cc(Cl)ccc43)ccc2nc1-c1ccc(F)cc1` [compound 222, 7-[[(6-chloro-1,2,3,4-tetrahydro-1(S)-naphthalenyl)amino]carbonyl]-3-(4-fluorophenyl)-2-quinoxalinepentanoic acid] yielded a Ki of 2.1 to 20 nM. Compound `O=C(O)CCCCc1nc2cc(C(=O)N[C@@H]3CCc4cc(F)ccc43)ccc2nc1-c1ccc(F)cc1` [compound 223, 7-[[(5-fluoro-2,3-dihydro-1H-inden-1(R)-yl)amino]carbonyl]-3-(4-fluorophenyl)-2-quinoxalinepentanoic acid] has a Ki of 0.1 to 2 nM. For `O=C(O)CCCCc1nc2cc(C(=O)N[C@H]3CCc4cc(F)ccc43)ccc2nc1-c1ccc(F)cc1` [compound 224, 7-[[(5-fluoro-2,3-dihydro-1H-inden-1(5)-yl)amino]carbonyl]-3-(4-fluorophenyl)-2-quinoxalinepentanoic acid], the Ki was 0.1 to 2 nM. In the case of `O=C(O)CCCCc1nc2cc(C(=O)N[C@@H]3CCc4cc(Cl)ccc43)ccc2nc1-c1ccc(F)cc1` [compound 225, 7-[[(5-chloro-2,3-dihydro-1H-inden-1(R)-yl)amino]carbonyl]-3-(4-fluorophenyl)-2-quinoxalinepentanoic acid], the Ki is reported as 0.1 to 2 nM. With `O=C(O)CCCCc1nc2cc(C(=O)N[C@H]3CCc4cc(Cl)ccc43)ccc2nc1-c1ccc(F)cc1` [compound 226, 7-[[(5-chloro-2,3-dihydro-1H-inden-1(S)-yl)amino]carbonyl]-3-(4-fluorophenyl)-2-quinoxalinepentanic acid] the Ki was 0.1 to 2 nM. Work on `O=C(O)CCCCc1nc2cc(C(=O)N[C@@H](c3ccc(Cl)cc3)C(F)(F)F)ccc2nc1-c1ccc(F)cc1` [compound 227, 7-[[[1(S)-(4-chlorophenyl)-2,2,2-trifluoroethyl]amino]carbonyl]-3-(4-fluorophenyl)-2-quinoxalinepentanoic acid] yielded a Ki of 0.1 to 2 nM. `O=C(O)CCCCc1nc2cc(C(=O)N[C@H](c3ccc(Cl)cc3)C(F)(F)F)ccc2nc1-c1ccc(F)cc1` [compound 228, 7-[[[1(R)-(4-chlorophenyl)-2,2,2-trifluoroethyl]amino]carbonyl]-3-(4-fluorophenyl)-2-quinoxalinepentanoic acid] gave a Ki of 0.1 to 2 nM. For `O=C(O)CCCCc1nc2cc(C(=O)N[C@@H]3CCc4ccccc43)ccc2nc1-c1ccc(F)cc1` [compound 229, 7-[[(2,3-dihydro-1H-inden-1(R)-yl)amino]carbonyl]-3 - (4-fluorophenyl)-2-quinoxalinepentanoic acid], the Ki was 0.1 to 2 nM. Compound `O=C(O)CCCCc1nc2cc(C(=O)N[C@H]3CCc4ccccc43)ccc2nc1-c1ccc(F)cc1` [compound 230, 7-[[(2,3-dihydro-1H-inden-1(S)-yl)amino]carbonyl]-3-(4-fluorophenyl)-2-quinoxalinepentanoic acid] has a Ki of 0.1 to 2 nM. `C[C@@H](NC(=O)c1ccc2nc(-c3ccccc3)c(CC[C@@H]3C[C@H]3C(=O)O)nc2c1)c1ccc(Cl)cc1` [compound 232, trans-2-[2-[7-[[[1(R)-(4-chlorophenyl)ethyl]amino]carbonyl]-3-phenyl-2-quinoxalinyl]ethyl] cyclopropanecarboxylic acid] showed a Ki of 2.1 to 20 nM. `C[C@@H](NC(=O)c1ccc2nc(-c3ccccc3)c(CC[C@H]3C[C@@H]3C(=O)O)nc2c1)c1ccc(Cl)cc1` [compound 233, trans-2-[2-[7-[[[1(R)-(4-chlorophenyl)ethyl]amino]carbonyl]-3-phenyl-2-quinexalinyl]ethyl]cyclopropanecarboxylic acid] showed a Ki of 2.1 to 20 nM. `C[C@@H](NC(=O)c1ccc2nc(-c3ccccc3)c(CCCCC(=O)O)nc2c1)c1ccc(F)cc1` [compound 234, 7-[[[1(R)-(4-fluorophenyl)ethyl]amino]carbonyl]-3-phenyl-2-quinoxalinepentanoic acid] gave a Ki of 2.1 to 20 nM. Work on `C[C@H](NC(=O)c1ccc2nc(-c3ccccc3)c(CCCCC(=O)O)nc2c1)c1ccc(F)cc1` [compound 235, 7-[[[1(S)-(4-fluorophenyl)ethyl]amino]carbonyl]-3-phenyl-2-quinoxalinepentanoic acid] yielded a Ki of 2.1 to 20 nM. With `C[C@H](c1ccc(F)cc1)N(C)C(=O)c1ccc2nc(-c3ccccc3)c(CCCCC(=O)O)nc2c1` [compound 236, 7-[[[1(R)-(4-fluorophenyl)ethyl]methylamino]carbonyl]-3-phenyl-2-quinoxalinepentanoic acid] the Ki was 2.1 to 20 nM. With `C[C@@H](c1ccc(F)cc1)N(C)C(=O)c1ccc2nc(-c3ccccc3)c(CCCCC(=O)O)nc2c1` [compound 237, 7-[[[1(S)-(4-fluorophenyl)ethyl]methylamino]carbonyl]-3-phenyl-2-quinoxalinepentanoic acid] the Ki was 2.1 to 20 nM. With `C[C@H](c1ccc(Cl)cc1)N(C)C(=O)c1ccc2nc(-c3ccccc3)c(CCCCC(=O)O)nc2c1` [compound 238, 7-[[[1(R)-(4-chlorophenyl)ethyl]methylamino]carbonyl]-3-phenyl-2-quinoxalinepentanoic acid] the Ki was 2.1 to 20 nM. `C[C@@H](c1ccc(Cl)cc1)N(C)C(=O)c1ccc2nc(-c3ccccc3)c(CCCCC(=O)O)nc2c1` [compound 239, 7-[[[1(S)-(4-chlorophenyl)ethyl]methylamino]carbonyl]-3-phenyl-2-quinoxalinepentanoic acid] gave a Ki of 2.1 to 20 nM. `C[C@H](c1ccc(F)cc1)N(C)C(=O)c1ccc2nc(-c3ccc(F)cc3)c(CCCCC(=O)O)nc2c1` [compound 240, 3-(4-fluorophenyl)-7-[[[1(R)-(4-fluorophenyl)ethyl]methylamino]carbonyl]-2-quinoxalinepentanoic acid] gave a Ki of 2.1 to 20 nM. Compound `C[C@@H](c1ccc(F)cc1)N(C)C(=O)c1ccc2nc(-c3ccc(F)cc3)c(CCCCC(=O)O)nc2c1` [compound 241, 3-(4-fluorophenyl)-7-[[[1(S)-(4-fluorophenyl)ethyl]methylamino]carbonyl]-2-quinoxalinepentanoic acid] has a Ki of 2.1 to 20 nM.

Same assay, conditions: [3H]PGD2 binding, values in text
Compound `O=C(O)CCCCc1nc2cc(C(=O)N[C@@H]3CCCc4ccccc43)ccc2nc1-c1ccc(F)cc1` [compound 217, 3-(4-fluorophenyl)-7-[[(1,2,3,4-tetrahydro-1(R)-naphthalenyl)amino]carbonyl]-2-quinoxalinepentanoic acid] has a Ki of 1.2 nM.
